This is an account of results in patent US20080090297A1, “Methods for determining the metal bioavailability of metal sources” (Novus International Inc., priority 2006, published 2008).

Data set [1] relates to metallothionein (MT) mRNA. In words: Time course of zinc-induced expression of metallothionein in chicken jejunum, QRT-PCR. The data set is classed as in vivo. From the text: A total of 54 chickens were fed a low zinc/low copper milo starter diet for 10 days. On day 11 (t=Day 0), the birds were split into two groups: 18 were fed a corn-soy diet supplemented with 25 ppm copper oxide and no zinc (“Cu”) and 36 were fed a corn-soy diet supplemented with 25 ppm copper oxide and 70 ppm zinc from Zn(HMTBA)2 (“Cu+Zn(HMTBA)2”). On days 13 (t=Day 2), 16 (t=Day 5) and 19 (t=Day 8), three “Cu” and three “Cu+Zn(HMTBA)2” birds per day were weighed and sacrificed. The mid-jejunum was collected from each bird. The lumen was rinsed with 3-4 ml of cold saline, and each sample was divided into two pieces, with each piece being no larger than 0.5 cm in any direction. The two pieces from each bird were placed in separate microcentrifuge tubes containing 0.9 ml of RNAlater solution.
RNA was isolated (RNA from the two pieces from each bird were pooled), and 18S-normalized MT mRNA expression levels were measured by QRT-PCR as described in Example 1. The data are expressed as MT mRNA expression relative to the low zinc jejunum reference sample from Example 1.

The subject of data set [2] is metallothionein (MT) mRNA. In words: Bioavailability of different zinc compositions in chickens, MT mRNA in jejunum mucosal scrapings by QRT-PCR. The data set is classed as in vivo, chicken. The conditions noted are these: 70 ppm zinc in corn-soy diet for 2 days (day 21 to 23); six birds per treatment; 18S-normalized; P≦0.05. Here is the method:
Chickens were fed a low zinc pre-feed diet for 20 days. On day 21, they were switched to a corn-soy diet supplemented with one of the following: 1) unsupplemented for zinc (control); 2) 70 ppm zinc from ZnOxide; 3) 70 ppm zinc from a zinc amino acid complex (Zn AAC); 4) 70 ppm zinc from Zn(HMTBA)2. On day 23, six birds from each treatment were weighed, sacrificed, and jejunum samples were collected. The lumen was rinsed with 3-4 ml of cold saline, the jejunum was cut open lengthwise, and the mucosal surface was scraped with a glass slide. Cell scrapings were collected into 0.9 ml of RNAlater. RNA was isolated as described in Example 1. QRT-PCR was performed as described in Example 1, and 18S-normalized MT mRNA expression was determined.

For data set [3], the system named is metallothionein (MT) mRNA. In words: Induction of metallothionein (MT) mRNA by zinc in chicken tissues, QRT-PCR. To be noted: high zinc diet (34 ppm basal + 64 ppm zinc from Zn(HMTBA)2) vs low zinc diet (34 ppm); day 29; normalized to 18S rRNA; one bird per group. The class given is in vivo. The source says:
Zinc treatment and sample collection. Upon hatching, chicks were placed on a moderately Zn-deficient starter diet. On day 13, they were switched to two different test diets: some were fed a low zinc diet with no zinc supplements (the diet contained 34 ppm zinc in the basal feedstuffs) and the rest were fed a high zinc diet comprising 34 ppm zinc in the feedstuffs and 64 ppm zinc from Zn(HMTBA)2 for a total of 98 ppm zinc. On day 29, a chicken from each group was sacrificed and the following tissues were collected: jejunum (small intestine), jejunum mucosal scrapings, liver, and kidney. The lumen of a 2-3 inch long jejunum section was rinsed with 3-4 ml of cold saline. The jejunum was cut open lengthwise and placed mucosa-side up on a clean cutting board. One piece of jejunum, no greater than 0.5 cm in any direction, was placed into a microcentrifuge tube containing 0.9 ml of RNAlater solution, and stored according to the manufacturer's instructions (Ambion, Austin Tex.). The jejunum section's remaining mucosal surface was scraped with a glass slide. Cell scrapings were collected and placed into 0.9 ml RNAlater. The other tissues were stored in RNAlater. RNA was isolated using the High Pure RNATissue Prep Kit (Roche Applied Science, Cat No 12033674001) following the manufacturer's instructions. The concentration of RNA was determined using a spectrophotometer, and the concentration of RNA was adjusted to a maximum of 0.5 mg/ml by dilution with elution buffer. The RNA samples were either used immediately, or frozen on dry ice and stored at −80° C. until use.
Reverse Transcriptase and Quantitative PCR. First strand cDNA synthesis was performed using the Transcriptor Reverse Transcriptase® (Roche Applied Science, Indianapolis, Ind., catalog #04379012001), using the instructions supplied by the manufacturer. Each first-strand synthesis reaction contained 0.5 μg of total RNA. The reverse transcription was performed in a thermocycler using the following program: a brief, 90 sec denaturation step at 65° C.; annealing for 30 sec at 40° C.; 30 min cDNA synthesis at 55° C.; and enzyme inactivation by 5 min denaturation at 85° C. The reaction product was concentrated by ethanol precipitation, rinsed and dried. The sample was then resuspended in 400 μl of nuclease-free water and A260/A280 was measured to ensure that cDNA concentration in each sample would fall within the range of concentration usable by the QRT-PCR assay.
MT mRNA and 18S rRNA levels were measured by QRT-PCR on a Roche LightCycler®, using the LightCycler® FastStart DNA Master HybProbe Kit (Roche Molecular Systems, Inc, Alameda, Calif., catalog #300324) using 0.5 μM of each primer and 0.2 μM of each TaqMan probe, as shown in Table 1. […]

With `CSCCC(O)C(=O)[O-].CSCCC(O)C(=O)[O-].[Zn+2]` (centres unmarked) [Zn(HMTBA)2], the “MT mRNA expression in jejunum, overall effect of treatment” value in data set [1] (70 ppm zinc from Zn(HMTBA)2 + 25 ppm copper oxide vs 25 ppm copper oxide only, days 2, 5, 8, P=0.0077) was “increased MT expression”. In addition, the “MT mRNA expression in jejunum, difference between treatments by day” value in data set [1] (Cu+Zn(HMTBA)2 vs Cu diet, three birds per treatment per day, days 2, 5 and 8) is “Significant differences in MT expression are seen between treatments on days 5 and 8”. Moreover, in data set [2], the “levels of MT mRNA induced in jejunum mucosal scrapings” value is “significantly greater than those induced by ZnOxide or the Zn AAC”. For the same compound, in data set [3], the “fold induction of MT mRNA in jejunum” value came out at 34 fold, the “fold induction of MT mRNA in jejunum mucosal scrapings” value was found to be 125 fold, the “fold induction of MT mRNA in kidney” value is given as 9 fold and the “fold induction of MT mRNA in liver” value came to 19 fold.
In the case of `[O-2].[Zn+2]` [ZnOxide, zinc oxide, reference compound], the “levels of MT mRNA induced in jejunum mucosal scrapings” value in data set [2] was “not significantly greater than MT expression in the unsupplemented birds”.
